The text below walks through data of patent publication US10064417B2, “Milk filtration devices and methods for filtering” (Janssen Pharmaceutica NV, priority 2015, dated 2018).

For data set [1] the following is noted: cited from earlier work.
For data set [2] the following is noted: cited from earlier work. This is another data set of the same source.
Data set [3] is described as follows: Fraction of ketamine in the neutral state at various pHs. The note with it: mother's milk, pH about 7.2-7.4, estimated from Table I. The data set is classed as physicochemical.
For data set [4] the following is noted: cited from earlier work. The source holds these as a separate data set.
For data set [5] the following is noted: cited from earlier work. This is another data set of the same source.
The next data set deals with orosomucoid. The note with it: human blood; cited from earlier work.

Molecules are shown by their SMILES. Like-named read-outs stand apart in the source and are kept apart here.

For orientation: Log P means the decadic logarithm of the partition coefficient of the neutral form, usually between octanol and water. As to `N=C(N)NCCC[C@H](N)C(=O)O` [Arginine], in data set [1], the “Log P” value is given as −1.7.
What is called pKa is the negative logarithm of the acid dissociation constant. Consider `N[C@@H](Cc1c[nH]cn1)C(=O)O` [Histidine], for which the pKa in data set [2] is 9.1.
For `CNC1(c2ccccc2Cl)CCCCC1=O` (stereo not shown) [Ketamine], the “neutral fraction of ketamine in milk” value in data set [3] was 30-40%. Besides, the “Fraction of neutral ketamine” value in data set [4] (pH 7.1) is 28.0%; in data set [4] (pH 7.4) it was 44.3%; in data set [4] (pH 7.5) it was 50.0%.
As to `NCCCC[C@H](N)C(=O)O` [Lysine], the “Log P” value in data set [1] is −3.2.
On to `O=C(O)[C@@H]1CCCN1` [Proline], for which the “Log P” value in data set [1] is −2.6.
As to `Cc1ncc(CO)c(CO)c1O` [Pyridoxine], the pKa in data set [2] is on record as 8.7.
In the case of `Cc1cc2nc3c(=O)[nH]c(=O)nc-3n(C[C@H](O)[C@H](O)[C@H](O)CO)c2cc1C` [Riboflavin], the log partition coefficient (Log P) in data set [1] was −0.92.
Consider `CN[C@H]1CC[C@@H](c2ccc(Cl)c(Cl)c2)c2ccccc21` [Sertraline], for which the “bound in mother's milk” value in data set [5] is listed as “about 80%”. Besides, in the data set on orosomucoid, the bound to orosomucoid was 95%. Further, in data set [1], the “Log P” value is 5.10.
As for `NCCS(=O)(=O)O` [Taurine], the pKa in data set [2] is 9.0; in data set [2] (room temperature) it was “about 9”. The “Log P” value in data set [1] is on record as −1.9.
Take `Cc1ncc(C[n+]2csc(CCO)c2C)c(N)n1` [Thiamine]: the entries for the “Log P” value in data set [1] and in data set [1] (listed as thiamine) were −3.1 and about −3, respectively.
Regarding `CNCCC(Oc1ccc(C(F)(F)F)cc1)c1ccccc1` (stereo not shown) [fluoxetine, reference compound], in data set [2] (room temperature), the pKa entry is given as “about 10.3”.
